3 molecules from US8382729B2, “Adhesive patch” (Hisamitsu Pharmaceutical Co., Inc., priority 2008, dated 2013) can be followed below.

The data set can be described thus: Measurement of plasma concentration after patch application. Format: in vivo, human. To be noted: for AUC(0-t) / Cmax: male, human, in vivo. As to the method:
The blood was collected at each of 0, 0.5, 1, 2, 3, 4, 6, 8, 10, 12, 18, and 24 hours from the start of the application, and the amount of blood collected each time was 7 mL.
The plasma concentrations of the methyl salicylate, its metabolite salicylic acid, and the 1-menthol were each measured. The measurement was performed by liquid chromatography-mass spectrometry for the salicylic acid and by gas chromatography-mass spectrometry for the methyl salicylate and the 1-menthol. Each of the measurement methods was validated beforehand to confirm measurement reliability. Incidentally, values obtained by subtracting an endogenous concentration before the application (measurement value on 0 hour from the start of the application) from an actual measurement value were used as plasma concentrations during the application. The Cmax and AUC0-24 were calculated according to the changes in the measurement values of these plasma concentrations over time.
Changes in the plasma concentrations of the salicylic acid, the methyl salicylate, and the 1-menthol over time are shown in FIG. 4 to FIG. 6. In addition, the pharmacokinetic parameters (mean, maximum value, and minimum value of Cmax and AUC0-24) of each of the drugs are shown in Table 6. Incidentally, a mean in the figure was an average value from the seven human subjects and represented using a standard deviation (SD). This measurement of the plasma concentrations was performed according to the guideline of FDA (U.S. Food and Drug Administration) (Gaidance for Industry=Bioanalytical Method Validation).

Setting [1] is: plasma, 280 cm^2 adhesive patch of Example 1 (methyl salicylate 336 mg, l-menthol 100 mg) applied 8 hours, seven healthy males, baseline-subtracted.
Setting [2] is: plasma, 280 cm^2 adhesive patch of Example 1 applied 8 hours, seven healthy males.

For the molecule `COC(=O)c1ccccc1O` [Methyl Salicylate], the AUC(0-t) (usually the area under the concentration-time curve up to a stated or last time point) by setting is: (AUC0-24, Maximum Value) 50 ng·h/mL; (AUC0-24, Minimum Value) 8.1 ng·h/mL. Moreover, the Cmax (commonly the highest concentration seen after dosing) reads like this: (Maximum Value) 33 ng/mL; (Minimum Value) 3.5 ng/mL.

Regarding `O=C(O)c1ccccc1O` [Salicylic Acid], the AUC(0-t) is, setting by setting: (AUC0-24, Maximum Value) 11800 ng·h/mL; (AUC0-24, Minimum Value) 3950 ng·h/mL. Besides, the concentration (Maximum Value) peaked (Cmax) at 1770 ng/mL and the highest level (Minimum Value) (Cmax) was 705 ng/mL.

Regarding `CC(C)[C@@H]1CC[C@@H](C)C[C@H]1O` [l-Menthol], under setting [1], the “AUC0-24, Mean ± SD” value amounted to 53.6 ± 33.4 ng·h/mL and the “Cmax, Mean ± SD” value is given as 10.7 ± 6.4 ng/mL. For the same molecule, under setting [2], the “AUC0-24, Maximum Value” was 109 ng·h/mL; the “AUC0-24, Minimum Value” was determined as 15.4 ng·h/mL; the “Cmax, Maximum Value” is recorded as 22.5 ng/mL; the “Cmax, Minimum Value” is listed as 4.5 ng/mL.
